What was measured:
hydrogénase = test: Initial rate of reduction with a hydrogenase (Example 6); assay type: biochemical; conditions: coenzyme 0,17 mM expressed as bound NAD+, Tris HCl pH8,0 50 mM, hydrogen at saturation, 29 mU hydrogenase; NAD+ = 100
Experimental: Les produits A à E préparés selon les procédés décrits dans les exemples 1 à 5 précédents sont soumis à un essai de mesure de la vitesse initale de réduction avec une hydrogénase.
Cette mesure s'effectue sur un milieu réactionnel de 0,28 ml contenant le coenzyme 0,17 mM, exprimé en NAD^+ lié pour les dérivés du NAD^+, 50 mM en tampon pH8,0 Tris HCl, de l'hydrogène à saturation et 29 mU d'enzyme hy- drogènase à 21 U/mg.
A titre comparatif la même mesure est effectuée sur le noyau NAD^+ et sur les dérivés substitués de formules (4) et (5).

L-lactate déshydrogénase = test: Initial rate of oxidation of the reduced forms with L-lactate dehydrogenase (Example 7); assay type: biochemical; conditions: reduced forms after Na2S2O4 treatment; coenzyme 0,17 mM, Tris HCl 50 mM, 16 mM sodium pyruvate, 17 mU L-lactate dehydrogenase; NADH = 100
Experimental: Ces mêmes produits, mais sous forme réduite après traitement au Na2S2O4, sont soumis à un essai de mesure de la vitesse initiale d'oxydation avec l'enzyme L-lactate déshydrogénase.
Cette mesure s'effectue sur un milieu réactionnel de 0,5 ml contenant le coenzyme 0,17 mM (exprimé comme dans l'exemple 6) le même tampon 50 mM, 16 mM en pyruvate de sodium et 17 mU de L-lactate déshydrogènase à 700 U/mg. A titre comparatif la même mesure est effectuée sur NADH et le dérivé de formule 4 réduit.

Row | Taux initial de réduction (%) (hydrogénase) | SMILES | Taux initial d'oxydation (%) (L-lactate déshydrogénase)
1 | 90 | NCCNc1ncnc2c1ncn2[C@@H]1O[C@H](COP(=O)(O)OP(=O)([O-])OC[C@H]2O[C@@H]([n+]3cccc(C(N)=O)c3)[C@H](O)[C@@H]2O)[C@@H](O)[C@H]1O [Dérivé (5), N^6-(2-aminoéthyl)-NAD^+] | 
2 |  | NCCCCCCNc1nc2c(N)ncnc2n1[C@@H]1O[C@H](COP(=O)(O)OP(=O)(O)OC[C@H]2O[C@@H](N3C=CCC(C(N)=O)=C3)[C@H](O)[C@@H]2O)[C@@H](O)[C@H]1O [Dérivé (4) réduit] | 62,5%
3 | 100 | NC(=O)c1ccc[n+]([C@@H]2O[C@H](COP(=O)([O-])OP(=O)(O)OC[C@H]3O[C@@H](n4cnc5c(N)ncnc54)[C@H](O)[C@@H]3O)[C@@H](O)[C@H]2O)c1 [NAD^+] | 
4 |  | NC(=O)C1=CN([C@@H]2O[C@H](COP(=O)(O)OP(=O)(O)OC[C@H]3O[C@@H](n4cnc5c(N)ncnc54)[C@H](O)[C@@H]3O)[C@@H](O)[C@H]2O)C=CC1 [NADH, nicotinamide adénine dinucléotide] | 100%
5 | 50 | NCCCCCCNc1nc2c(N)ncnc2n1[C@@H]1O[C@H](COP(=O)(O)OP(=O)([O-])OC[C@H]2O[C@@H]([n+]3cccc(C(N)=O)c3)[C@H](O)[C@@H]2O)[C@@H](O)[C@H]1O [Dérivé (4), C^8-(6-aminohexyl)-amino-NAD^+] | 

— EP0206858A1, “Process for the synthesis of macromolecular derivatives of nicotinamide adenine” (SOCIETE NATIONALE ELF AQUITAINE, priority 1985, dated 1986)
